Results taken from patent publication US6426355B1, “Heterocyclic carboxamide-containing thiourea inhibitors of herpes viruses containing phenylenediamine group” (American Home Products, priority 1998, dated 2002).
Values after ≈ are worked out from the molar mass of the structure shown.

Tests used:
[1] = tested on: HCMV recombinant mutant virus (RV145); assay: HCMV microtiter plate assay (beta-glucuronidase reporter); format: cell-based, Human Cytomegalovirus; conditions: for IC50 (ug/ml) HCMV: HCMV in human foreskin fibroblasts; for IC50: Human betaherpesvirus 5, Fibroblast, read-out: IC50 (ug/ml) HCMV
Outline: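 Human foreskin fibroblasts were infected with RV145 in the presence of inhibitor. β-glucuronidase under a viral promoter served as the replication marker. At 96 h post-infection, lysates in pH 7.0 phosphate with Triton X-100/sarkosyl were assayed colorimetrically or fluorometrically, and IC50 was estimated from varying inhibitor amounts.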

HSV-1 = assay: HSV Antiviral (ELISA) assay; format: cell-based; conditions: for IC50 (ug/ml) HSV: HSV-1 in Vero cells; for IC50: Human alphaherpesvirus 1, HSV-1 in Vero cells, read-out: IC50 (ug/ml) HSV
Procedure: Vero cells (ATCC #CCL-81) are plated on 96-well tissue culture plates at 3.5×10^4 cells per 100 μl tissue culture DMEM (Dulbecco's modified Eagle media) supplemented with 2% fetal bovine serum (FBS) in each well. After overnight incubation @ 37° C. (in 5% CO2) and 30 minutes prior to infection with HSV-1 (multiplicity of infection equal to 0.006), cells are either untreated, or treated with test compound (multiple concentrations) or reference standard drug control. After approximately 24 hours post-infection incubation @ 37° C. (in 5% CO2), cells are fixed for ELISA assay. The primary antibody is murine anti-HSV glycoprotein D monoclonal primary antibody and the secondary antibody is goat anti-mouse IgG linked to β-galactosidase. Thus the extent of viral replication is determined by assessing β-galactosidase activity by quantifying the generation of the 4-methyl umbelliferone fluorescent cleavage product after addition of the methyl umbelliferyl-β-D-galactoside (Sigma #M1633) substrate on a microfluorimeter (365 nm for excitation and 450 nm for emission). Antiviral activity (IC50) of the test compound is determined by comparing the flourescence obtained in absence of compound to that obtained in the presence of compound.

VZV strain Ellen = assay: VZV Antiviral (ELISA) assay; format: cell-based; conditions: VZV strain Ellen in HFF cells
Procedure: For the generation of stock VZV to be used in the assay, VZV strain Ellen (ATCC #VR-1367) is used to infect human foreskin fibroblast (HFF) cells at low multiplicity (less than 0.1) and incubated overnight at 37° C. in 5% CO2. After the overnight incubation, the mixture of uninfected and VZV-infected HFF infected cells are then harvested and added to each well of 96-well plates (3.5×10^4 cells in 100 μl DMEM supplemented with 2% FBS) which contain test compound or the reference standard drug control (in 100 μl DMEM supplemented with 2% FBS per well). These cells are incubated for three days at 37° C. in 5% CO2, then fixed for ELISA assay. The primary antibody is murine anti-VZV glycoprotein II monoclonal antibody (Applied Biosystems, Inc. #13-145-100) and the secondary antibody is goat anti-mouse IgG linked to β-galactosidase. Thus the extent of viral replication is determined by assessing β-galactosidase activity by quantifying the generation of the 4-methyl umbelliferone fluorescent cleavage product after addition of the methyl umbelliferyl-β-D-galactoside (Sigma #M1633) substrate on a microfluorimeter (365 nm for excitation and 450 nm for emission). Antiviral activity (IC50) of the test compound is determined by comparing the flourescence obtained in absence of compound to that obtained in the presence of compound.

Row | SMILES | IC50 (ug/ml) HCMV [1] | IC50 (ug/ml) HSV (HSV-1) | IC50 (ug/ml) VZV (VZV strain Ellen) | % inhibition 10 ug/ml VZV (VZV strain Ellen; at 10 ug/ml) | IC50 [1] | IC50 (HSV-1)
1 | O=C(Nc1ccc(NC(=S)NCCc2cc(C(F)(F)F)cc(C(F)(F)F)c2)cc1)c1csnn1 [Example 599] | 0.005 µg/mL (≈ 0.00962 µM) | >10 µg/mL | >10 µg/mL |  |  | 
2 | CN(C)c1ccc(NC(=S)Nc2ccc(NC(=O)c3ccccn3)cc2)cc1Cl [Example 350] | 1 µg/mL (≈ 2.35 µM) | >10 µg/mL | >10 µg/mL | 50% |  | 
3 | O=C(Nc1ccc(NC(=S)Nc2ccc(Br)cc2)cc1)c1csnn1 [Example 739] | 0.02 µg/mL (≈ 0.046 µM) | >10 µg/mL |  |  |  | 
4 | Cc1cc(C)cc(CNC(=S)Nc2ccc(NC(=O)c3csnn3)cc2)c1 [Example 691] | 0.008 µg/mL (≈ 0.0201 µM) | >10 µg/mL |  |  |  | 
5 | O=C(Nc1ccc(NC(=S)NCCc2ccc(Cl)cc2Cl)cc1)c1csnn1 [Example 707] | 0.005 µg/mL (≈ 0.0111 µM) | >10 µg/mL |  |  |  | 
6 | O=C(Nc1ccc(NC(=S)Nc2ccc(Cl)c(Cl)c2)cc1)c1cscn1 [Example 704] | 0.006 µg/mL (≈ 0.0142 µM) | >10 µg/mL |  |  |  | 
7 | COC(=O)c1cccc(NC(=S)Nc2ccc(NC(=O)c3ccccc3F)cc2)c1 [Example 1000, 3-{3-[4-(2-Fluoro-benzoylamino)-phenyl]-thioureido}-benzoic acid methyl ester] |  |  |  |  | 0.39 µg/mL (≈ 0.921 µM) | > 10 µg/mL
8 | O=C(Nc1ccc(NC(=S)NCCSc2cccc(Br)c2)cc1)c1csnn1 [Example 678] | 0.005 µg/mL (≈ 0.0101 µM) | >10 µg/mL |  |  |  | 
9 | O=C(Nc1ccc(NC(=S)NCCC(c2ccccc2)c2ccccc2)cc1)c1csnn1 [Example 686] | 0.007 µg/mL (≈ 0.0148 µM) | >10 µg/mL |  |  |  | 
10 | O=C(Nc1ccc(NC(=S)NCCc2cccc(C(F)(F)F)c2F)cc1)c1csnn1 [Example 766] | 0.006 µg/mL (≈ 0.0128 µM) | >10 µg/mL |  |  |  | 
11 | O=C(Nc1ccc(NC(=S)NCc2ccc(F)c(F)c2)cc1)c1ccco1 [Example 675] | 0.05 µg/mL (≈ 0.129 µM) | >10 µg/mL |  |  |  | 
12 | O=C(Nc1ccc(NC(=S)NCCc2ccc(F)cc2C(F)(F)F)cc1)c1csnn1 [Example 769] | 0.04 µg/mL (≈ 0.0852 µM) | >10 µg/mL |  |  |  | 
13 | O=C(Nc1ccc(NC(=S)NCc2cccc(I)c2)cc1)c1csnn1 [Example 663] | 0.01 µg/mL (≈ 0.0202 µM) | >10 µg/mL |  |  |  | 
14 | O=C(Nc1ccc(NC(=S)NCCOc2cccc(I)c2)cc1)c1csnn1 [Example 750] | 0.01 µg/mL (≈ 0.019 µM) | >10 µg/mL |  |  |  | 
15 | O=C(Nc1ccc(NC(=S)NCc2ccc(F)cc2)cc1)c1csnn1 [Example 741] | 0.02 µg/mL (≈ 0.0516 µM) | >10 µg/mL |  |  |  | 
16 | O=C(Nc1ccc(NC(=S)Nc2ccccc2Cl)cc1)c1ccccc1F [Example 998, N-{4-[3-(2-Chloro-phenyl)-thioureido]-phenyl}-2-fluoro-benzamide] |  |  |  |  | 0.016 µg/mL (≈ 0.04 µM) | > 10 µg/mL
17 | O=C(Nc1ccc(NC(=S)NCc2ccc(Cl)cc2)cc1)c1csnn1 [Example 742] | 0.009 µg/mL (≈ 0.0223 µM) | >10 µg/mL |  |  |  | 
18 | O=C(Nc1ccc(NC(=S)NCCCCc2ccccc2)cc1)c1csnn1 [Example 648] | 0.01 µg/mL (≈ 0.0243 µM) | >10 µg/mL |  |  |  | 
19 | O=C(Nc1ccc(NC(=S)NCc2ccc(F)c(Cl)c2)cc1)c1csnn1 [Example 689] | 0.007 µg/mL (≈ 0.0166 µM) | 7 µg/mL (≈ 16.6 µM) |  |  |  | 
20 | O=C(Nc1ccc(NC(=S)NCCc2cccc(C(F)(F)F)c2)cc1)c1csnn1 [Example 708] | 0.005 µg/mL (≈ 0.0111 µM) | >10 µg/mL |  |  |  | 
21 | O=C(Nc1ccc(NC(=S)NCCOc2cccc(Cl)c2)cc1)c1csnn1 [Example 668] | 0.009 µg/mL (≈ 0.0207 µM) | >10 µg/mL |  |  |  | 
22 | COc1cc(OC)c(NC(=S)Nc2ccc(NC(=O)c3cnccn3)cc2)cc1Cl [Example 144] | 10 µg/mL (≈ 22.5 µM) | 7 µg/mL (≈ 15.8 µM) |  |  |  | 
23 | O=C(Nc1ccc(NC(=S)NCCOc2ccc(Br)cc2)cc1)c1ccco1 [Example 697] | 0.04 µg/mL (≈ 0.0869 µM) | 7 µg/mL (≈ 15.2 µM) |  |  |  | 
